Measurements reported in PMC8986850, “Development and exploration of novel substituted thiosemicarbazones as inhibitors of aldose reductase via in vitro analysis and computational study” (Scientific Reports, 2022).

Target: T1, ALR1 (Bos taurus, UniProt Q3ZCJ2)
T1 construct: The calf’s kidneys were obtained after slaughtering and dissection; from tissue; host or cells: calf kidneys
Experiment: ALR1 enzyme inhibition assay (enzyme extracted from calf kidneys)
Assay type: biochemical, bovine
Conditions: bovine kidney ALR1, 100 µM inhibitor; read-out: I (%, 100 µM) (ALR1)
Method: Compounds 3a-o were tested against ALR2 to evaluate their inhibitory potential against aldose reductase whereas selectivity was determined via performing ALR1 inhibition assay. For the enzyme inhibition assay, ALR2 and ALR1 were extracted from bovine sources (ALR2 from eyes and ALR1 from kidneys). Moreover, inhibitions studies were also carried out on the expressed ALR2 (human AKR1B1) and inhibition data for ALR2- bovine source and expressed enzyme was compared and analyzed. The protocols for enzyme extraction and expression in the bacterial system are included in the section of “Supporting information”. […] For the purpose of comparison and validation of enzyme inhibition data, these compounds were tested against human AKR1B1 (hAKR1B1) expressed in E. coli BL21 (DE3). We found a similar pattern of enzyme inhibition for the synthesized compounds against extracted enzyme (ALR2) as well as expressed enzyme (hAKR1B1).
For the determination of enzyme activity of ALR1 and ALR2, 100 µL of reaction mixture was composed of 20 µL of buffer (100 mM sodium phosphate, pH 6.2), 30 µL of enzyme extract, 20 µL of substrate (10 mM), 20 µL of cofactor (0.1 mM of NADPH) and 10 µL of test compound (1 mM)[6],[21]. The reaction mixture without cofactor was incubated at 32°C for 10 min, then the enzymatic reaction was initiated with the addition of NADPH and monitored for 5 minutes. Similar protocols were followed for ALR1 and ALR2, however the substrate was different for each enzyme, with sodium-D-glucoronate and DL-glyceraldehyde used as the substrates for the ALR1 and ALR2 assays, respectively. […] In addition, similar protocols were adopted for human AKR1B1 that was expressed in E. coli BL21 (DE3), though the determined protein concentration was 12 µg/mL for the expressed enzyme. Detailed protocols for the preparation of ALR1, ALR2 and expressed human AKR1B1 can be found in the supporting information.
The newly synthesized N-substitute thiosemicarbazones (3a-o) were dissolved in 100% DMSO and diluted with deionized water, keeping the DMSO concentration equal to 0.1% in the assay.
The calf’s kidneys were obtained after slaughtering and dissection, dissolved in 3 volumes of sodium phosphate buffer (10mM) which is composed of 2.0 mM EDTA, 2.5mM β-mercaptoethanol, 0.25M solution of sucrose at pH 7.25. First, the homogenisation was carried out then centrifugation of the homogenate was performed at 12000 x g at 0-2^◦C for 30 minutes. The precipitates containing insoluble lipids were discarded and the collected supernatant layer was treated with 40% saturation of ammonium sulphate. This liquid mixture was subjected to centrifugation at 11000 x g at 0-2^◦C for 30 minutes. Now, precipitates were again discarded and supernatant was collected and treated with 50% ammonium sulphate and procedure was repeated in the same manner as in previous step. In the last step, the saturation of ammonium sulphate was increased up to 75% and supernatant was subjected to same parameter of centrifugation. At this final step, precipitates were obtained and supernatant layer was discarded. The obtained material of precipitates was composed of ALR1and redissolved in initial buffer that was used during homogenisation. Finally, material was dialyzed overnight with same buffer system. The dialyzed fractions containing ALR1 were stored at -80^◦C for further use[5].

T1 sequence (Q3ZCJ2 whole entry): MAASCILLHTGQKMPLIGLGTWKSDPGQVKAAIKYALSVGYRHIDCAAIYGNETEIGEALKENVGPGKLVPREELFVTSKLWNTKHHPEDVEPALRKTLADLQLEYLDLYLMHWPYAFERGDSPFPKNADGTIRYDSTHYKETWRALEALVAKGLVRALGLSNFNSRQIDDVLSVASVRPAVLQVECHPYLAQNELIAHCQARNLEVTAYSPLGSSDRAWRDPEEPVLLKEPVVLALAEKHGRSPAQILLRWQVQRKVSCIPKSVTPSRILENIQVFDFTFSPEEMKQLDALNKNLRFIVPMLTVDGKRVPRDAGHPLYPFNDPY

How did the inhibition at 100 µM turn out when `CC(C)(C)c1cc(C=NNC(=S)Nc2ccccc2F)c(O)c(C(C)(C)C)c1` [Compound 3m, 2-(3,5-di-tert-butyl-2-hydroxybenzylidene)-N-(2-fluorophenyl)hydrazine carbothioamide] was run?
The inhibition at 100 µM was 4.27 to 26.2%.
